This note sets out measurements from the supplement of paper PMC11061612.

Experiment in all cases: combination Emax (second highest fraction inhibited in the dose matrix, 72 h); higher = more inhibition; extreme values may be limits of the assay
The test system of assay [1] is 8505C (Thyroid Gland Carcinoma). The gist of the method:
(§1)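 Cell lines in DMEM/F12 or RPMI with 10% FBS were plated in 1536-well plates, held 24 hours at 37°C, 5% CO2, then given two-drug dose matrices for 72 hours (DMSO typically 0.2%). Viability was read by CellTiter-Glo 2.0 luminescence and scaled as inhibition from 0 (vehicle wells) to 1 (blank wells). Combination Emax is the second-highest inhibition in the matrix; Bliss excess is observed combination effect minus expected EA + EB − EA·EB, EA and EB being single-agent effects.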

Assay [2] deals with COR-L279 (Small Cell Lung Carcinoma). The method, boiled down: as §1
For assay [3], the system named is ESO51 (Esophageal Adenocarcinoma). The method, boiled down: as §1
In the next assay the test system is G-361 (Melanoma). The gist of the method:
as §1

Assay [4] deals with IM-95 (Gastric Carcinoma). The method, boiled down: as §1
Assay [5] deals with KMS-12-BM (Plasma Cell Myeloma). The gist of the method:
as §1

For assay [6], the system named is KP-3 (Pancreatic Carcinoma). The gist of the method:
as §1

For assay [7], the system named is KU812 (Chronic Myelogenous Leukemia). The gist of the method: as §1
For assay [8], the system named is KYSE-270 (Esophageal Squamous Cell Carcinoma). The method, boiled down:
as §1

Assay [9] concerns MN-60 (B-Lymphoblastic Leukemia). The method, boiled down:
as §1

Assay [10] concerns MOG-G-CCM (Low Grade Glioma). The method, boiled down:
as §1

In assay [11] the test system is MOLM-13 (Acute Myeloid Leukemia). The gist of the method: as §1
A further assay concerns NCI-H2731 (Mesothelioma). The gist of the method: as §1
Assay [12] deals with NCI-H3122 (Lung Adenocarcinoma). The gist of the method: as §1
Assay [13] has as its system NCI-H661 (Non-Small Cell Lung Carcinoma). The gist of the method:
as §1

The test system of assay [14] is NCI-H929 (Plasma Cell Myeloma). The gist of the method: as §1
Assay [15] has as its system RPMI-8226 (Plasma Cell Myeloma). The method, boiled down: as §1
In a further assay the test system is SJSA-1 (Osteosarcoma). The method, boiled down: as §1
In assay [16] the test system is SK-GT-2 (Gastric Carcinoma). The method, boiled down:
as §1

Assay [17] concerns SUP-B15 (B-Lymphoblastic Leukemia). The method, boiled down:
as §1

`COc1nnc2ccc(N3CCC(c4ccc(OCCN5CCN(C)C(=O)[C@H]5C)cc4)CC3)nn12` [AZD5153] + C[C@@H]1COCCN1C2=NC(=NC(=C2)C3(CC3)[S@](=N)(=O)C)C4=C5C=CNC5=NC=C4 [AZD6738] (first compound max 1 µM, 7x7, partner max 10 µM): the “combination Emax” value in [1] came to 0.807; in assay [2] it was 0.972; in assay [3] it was 0.823; with G-361 (Melanoma), 0.872; in assay [4], 0.44; in assay [5], 1. In addition, the “combination Emax” value in assay [6] was found to be 0.409; in assay [7], 0.963; in assay [8] it was 0.57; in [9], 0.8; in assay [10], 0.702; in assay [11], 1. Also, the “combination Emax” value came out at 0.699 with NCI-H2731 (Mesothelioma); 0.757 in assay [12]; 0.698 in assay [13]; 0.991 in assay [14]; 0.905 in [15]; 0.634 with SJSA-1 (Osteosarcoma). Also, the “combination Emax” value is 0.535 in assay [16] and 1 in assay [17].
For the compound `CC1(C)CCC(CN2CCN(c3ccc(C(=O)NS(=O)(=O)c4ccc(NCC5CCOCC5)c([N+](=O)[O-])c4)c(Oc4cnc5[nH]ccc5c4)c3)CC2)=C(c2ccc(Cl)cc2)C1` [Venetoclax] + CCN(CCO)CCCOc1ccc2c(Nc3cc(CC(=O)Nc4cccc(F)c4)[nH]n3)ncnc2c1 [AZD2811] (first compound max 1 µM, 7x7, partner max 1 µM), the “combination Emax” value worked out at 0.211 in assay [1]; 0.833 in [2]; 0.117 in assay [3]; 0.285 in the assay with G-361 (Melanoma); 0.412 in assay [4]; 1 in assay [5]. Moreover, the “combination Emax” value amounted to 0.148 in assay [6]; 0.65 in [7]; 0.716 in assay [8]; 0.297 in assay [9]; 0.485 in assay [10]; 1 in [11]. Besides, the “combination Emax” value in the assay with NCI-H2731 (Mesothelioma) turned out to be 0.211; in [12], 0.33; in [13], 0.143; in [14], 0.391; in assay [15], 0.481; in the assay with SJSA-1 (Osteosarcoma) it was 0.222. In addition, the entries for the “combination Emax” value in [16] and in assay [17] were 0.155 and 1, respectively.
Take `Cc1c2c(nn1C)CSCc1cc(n(C)n1)CSc1cc(c3ccccc3c1)OCCCc1c(C(=O)O)n(C)c3c-2c(Cl)ccc13` [AZD5991] + C[C@@H](Nc1cc(F)cc(F)c1)c1cc(C(=O)N(C)C)cc2c(=O)cc(N3CCOCC3)oc12 [AZD8186] (first compound max 1 µM, 7x7, partner max 3 µM): the “combination Emax” value in [1] came out at 0.2; in assay [2], 0.624; in assay [3] it was 0.217; in the assay with G-361 (Melanoma), 0.942; in assay [4], 0.817; in assay [5] it was 1. Also, the “combination Emax” value in assay [6] stood at 0.124; in [7], 0.862; in assay [8] it was 0.622; in assay [9], 0.343; in [10] it was 0.447; in assay [11] it was 1. Further, the “combination Emax” value stood at 0.151 in the assay on NCI-H2731 (Mesothelioma); 0.352 in assay [12]; 0.6 in assay [13]; 1 in assay [14]; 0.949 in assay [15]; 0.34 in the assay on SJSA-1 (Osteosarcoma). The “combination Emax” value in assay [16] turned out to be 0.179; in [17], 1.
On to `Cc1cc2ncnn2cc1Nc1ncc2c(n1)n(C1CCOCC1)c(=O)n2C` [AZD7648] + O=C(c1cc(Cc2n[nH]c(=O)c3ccccc23)ccc1F)N1CCN(C(=O)C2CC2)CC1 [Olaparib] (first compound max 10 µM, 7x7, partner max 10 µM), for which the “combination Emax” value in assay [1] is 0.229; in [2] it was 0.858; in [3], 0.224; with G-361 (Melanoma) it was 0.117; in assay [4], 0.204; in assay [5], 0.429. The “combination Emax” value turned out to be 0.0579 in [6]; 0.393 in [7]; 0.212 in assay [8]; 0.175 in assay [9]; 0.236 in [10]; 0.43 in assay [11]. Also, the “combination Emax” value is 0.14 in the assay with NCI-H2731 (Mesothelioma); 0.281 in assay [12]; 0.215 in assay [13]; 0.761 in [14]; 0.464 in assay [15]; 0.18 with SJSA-1 (Osteosarcoma). Further, the results for the “combination Emax” value in [16] and in assay [17] were 0.0892 and 0.917, respectively.
For `NC1(C(=O)N[C@@H](CCO)c2ccc(Cl)cc2)CCN(c2ncnc3[nH]ccc23)CC1` [Capivasertib] + CCN(CCO)CCCOc1ccc2c(Nc3cc(CC(=O)Nc4cccc(F)c4)[nH]n3)ncnc2c1 [AZD2811] (first compound max 10 µM, 7x7, partner max 1 µM), the “combination Emax” value was determined as 0.304 in [1]; 0.935 in assay [2]; 0.248 in [3]; 0.46 in the assay on G-361 (Melanoma); 0.427 in [4]; 0.522 in assay [5]. Moreover, the “combination Emax” value was determined as 0.284 in assay [6]; 0.727 in assay [7]; 0.329 in assay [8]; 0.336 in [9]; 0.67 in [10]; 0.993 in assay [11]. Moreover, the “combination Emax” value is 0.398 in the assay on NCI-H2731 (Mesothelioma); 0.62 in assay [12]; 0.36 in assay [13]; 1 in assay [14]; 0.422 in assay [15]; 0.489 in the assay on SJSA-1 (Osteosarcoma). Also, the “combination Emax” value worked out at 0.417 in assay [16] and 0.929 in [17].
For `CC1(C)CCC(CN2CCN(c3ccc(C(=O)NS(=O)(=O)c4ccc(NCC5CCOCC5)c([N+](=O)[O-])c4)c(Oc4cnc5[nH]ccc5c4)c3)CC2)=C(c2ccc(Cl)cc2)C1` [Venetoclax] + CN(C)CCCOc1ccc(-c2ccc3ncc4c(c3c2)n(C2CCOCC2)c(=O)n4C)cn1 [AZD0156] (first compound max 1 µM, 7x7, partner max 1 µM), the “combination Emax” value in assay [1] amounted to 0.2; in assay [2] it was 0.522; in assay [3] it was 0.147; in the assay on G-361 (Melanoma) it was 0.115; in assay [4], 0.19; in [5], 1. Moreover, the “combination Emax” value in assay [6] stood at 0.146; in assay [7] it was 0.403; in [8], 0.785; in [9] it was 0.285; in [10], 0.385; in [11], 0.898. Also, the “combination Emax” value in the assay on NCI-H2731 (Mesothelioma) was found to be 0.145; in assay [12] it was 0.264; in assay [13], 0.122; in assay [14], 0.691; in assay [15], 0.43; in the assay with SJSA-1 (Osteosarcoma) it was 0.177. Also, the results for the “combination Emax” value in assay [16] and in [17] were 0.155 and 1, respectively.
